For one experiment, the system named is renal epithelial cells. Nature of the experiment: Measurement of GSH content. In kind it is cell-based. The note with it: single treatment of cisplatin 25 μg/ml, 24 hours. How it is done:
Monochlorobimane was employed to determine the GSH levels, and experiments for measuring GSH content were performed using the […] with reference to the conventional method of Fernandez-Checa and Kaplowitz. The number of cells, in which GSH is detectable, was determined by historical data and preliminary experiment, and 2×10^6 cells were seeded to each well of culture plate. After culture for 24 hours, the dilution fold of the final concentration of the drug determined as an active drug was considered and calculated, based on the results of MTT Assay and crystal violet Assay. […] Cells were harvested using 0.25% Trypsin-EDTA, and then centrifuged at 1,200 rpm for 3 minutes. Cold buffer was added to the resulting cell pellet, followed by sonication for 30 seconds. Centrifugation was carried out at 10,000 rpm for 15 minutes, and then the supernatant was collected and used for BCA protein quantification. 1 g/ml of MPA diluted in D.W was added to the supernatant at a volume ratio of 4:1, followed by immediately vortexing. […] End-point fluorescence wavelength at Ex: 360 nm and Em: 460 nm was measured at S=70. Data of the experimental results were analyzed using a Microsoft Excel program, and post-test analysis using Bonferroni multiple comparison test was performed to investigate the differences between the groups. p<0.001 was considered statistically significant.

The next experiment has as its system p53. Briefly: Examination of p53 expression pattern (Western blot). In kind it is cell-based. The note with it: single treatment of cisplatin. The protocol: Cells treated with Elsholtziae Herba extract and/or cisplatin were harvested, and RIPA buffer was added thereto, followed by sonication for cell lysis. Centrifugation was performed at 15,000 rpm for 15 minutes, and the supernatant was obtained, and subjected to protein quantification by BCA assay. The protein was loaded at an amount of 20 μg/10 μl in each well, and 12% SDS-PAGE polyacrylamide gel electrophoresis was performed, and transferred to a nitrocellulose membrane. The membrane was blocked with 5% Skim milk-TBST, and then treated with primary antibody (anti-p53/dilution—1:300). p53 was detected with HRP conjugated anti-mouse IgG (dilution—1:5000) and immune reaction was visualized by ECL. The measurement results are shown as Mean±S.E.M. (standard error of mean) in FIG. 6.
For orientation: A western blot detects proteins with antibodies after separation by electrophoresis.

“Also recorded” adds a separate entry of the source.

Regarding `N.N.[Cl][Pt][Cl]` [cisplatin, cis-diaminedichloroplatinum II], the GSH content result in the experiment on renal epithelial cells is “reduced GSH content”. For the same compound, the p53 expression level entry with p53 is recorded as “increased p53 expression; also recorded: remarkably increased”.

The record behind these values is patent publication US9433655B2, “Composition comprising natural substance extract as active ingredient for preventing or treating acute renal failure” (priority 2012, dated 2016).
